Experimental data taken from patent US20250171457A1, “NITROGEN-CONTAINING HETEROCYCLIC COMPOUND HAVING NRF2 ACTIVATION EFFECT” (CHUGAI SEIYAKU KABUSHIKI KAISHA, priority 2022, published 2025).
Where two headings read alike, the source gives them in different places.

Assays:
[1] = tested on: Nrf2 transcriptional activity (pARE-Luc reporter) in HepG2 cells; experiment: In vitro Nrf2 transcriptional activity measurement by ARE-dependent reporter assay in HepG2 cell; type: cell-based, human; conditions: Homo sapiens; HepG2 cells transfected with pARE-Luc, 4 hours at 37° C.; luciferase activity of Example 1-54 or Example 17-23 at 3.75 μM defined as 100%
Summary of the method: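 HepG2 cells transfected with pGL4.37 (pARE-Luc), replated onto compound and incubated 4 h at 37° C; luciferase read by Bright-Glo luminescence. Response normalized to 100% set by a reference compound at 3.75 μM; EC50 from dose-response curve.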

[2] = tested on: Nqo1 (NAD(P)H quinone dehydrogenase 1) mRNA, Nrf2 downstream molecule; experiment: In vivo Nrf2 transcriptional activity measurement (Nqo1 mRNA in organs by qPCR); conditions: Mus musculus, C57BL/6J mice, Oral, 30 mg/kg, 7 to 8 hours
Procedure: Test Example 2: In Vivo Nrf2 Transcriptional Activity Measurement
A test compound (solvent: 10 vol % dimethyl sulfoxide/50 mM glycine/32 mM sodium hydroxide/physiological saline) was administered to C57BL/6J mice (7-8 weeks old), which were euthanized by whole blood collection under isoflurane anesthesia 7 to 8 hours later, followed by the collection of various organs. mRNA was purified from the collected organs, and the mRNA expression level of Mapk1 as an internal control and the mRNA expression level of Nqo1 (NAD(P)H quinone dehydrogenase 1) as a typical Nrf2 downstream molecule were each measured by qPCR. The Nqo1 mRNA expression level was quantified by comparative CT, and an expression level ratio to a non-administration group was calculated. The administration of the test compound elevated the Nqo1 mRNA expression level in the various organs, confirming that the test compound also has a Nrf2-activating effect in vivo.

Structure (SMILES): Cn1cc(-c2cc(Cl)c(C(=O)N3COc4c(cccc4-c4ccc(C(=O)O)c(N5CCOCC5)c4)C3)c(Cl)c2)cn1 [Compound 14-1, 4-[3-[2,6-Dichloro-4-(1-methylpyrazol-4-yl)benzoyl]-2,4-dihydro-1,3-benzoxazin-8-yl]-2-morpholin-4-ylbenzoic acid]
- EC50 [1]: 3.2 nM
- fold induction at 30 mg/kg ([2]; kidney, read-out: Nqo1 mRNA expression level ratio to non-administration group, Kidney): 5.7
- fold induction at 30 mg/kg ([2]; liver, read-out: Nqo1 mRNA expression level ratio to non-administration group, Liver): 4.2
- fold induction at 30 mg/kg ([2]; lung, read-out: Nqo1 mRNA expression level ratio to non-administration group, Lung): 17
